Earlier results on one compound are cited in patent US20110318267A1, “PH-RESPONSIVE NANOSTRUCTURES” (PRESIDENT AND FELLOWS OF HARVARD COLLEGE, priority 2008, published 2011).

Molecules are shown by their SMILES.

In the case of `C=C(C)C(=O)OCCN(C)C` [DMAEMA, dimethylaminoethyl methacrylate], the pKa is listed as 7.5.
